These results are taken from patent US9676714B2, “Sulfonylindole derivatives and method for preparing the same” (Daewoong Pharmaceutical Co., Ltd., priority 2013, dated 2017).

Where a name gives a salt, the structure may show the parent alone.

Test [1] concerns basal gastric acid secretion. As to the kind of experiment: Inhibitory effect on the basal gastric acid secretion in pylorus-ligated rats (Shay's rat model). In kind it is in vivo, Sprague Dawley (SD) rats. The following applies: 5 h, male SD rats, 3 mg/kg/2 ml into the duodenum, five hours after the ligation, total gastric acid secretion vs control group. On the procedure:
3) Inhibitory Effect on the Basal Gastric Acid Secretion in Pylorus-Ligated Rats
Assays for determining inhibitory effect of the compounds of the present invention on the basal gastric acid secretion was performed according to Shay's rat model (Shay, H., et al., 1945, gastroenterology, 5, p. 43-61). Male Sprague Dawley (SD) rats with a body weight in the range of 180˜220 g were divided into test (n=5) and control groups (n=5), and fasted for 18 hours with free access to water. Under isoflurane anesthesia, the abdomens of the rats were incised and then the pylorus was ligated. After the ligation, the control groups were administered with only 10% ethanol, 20% polyethylene glycol (PEG) 400, and 10% aqueous Cremophor solution through the duodenum, and the other groups were administered with test compounds suspended in 10% ethanol, 20% PEG 400, and 10% aqueous Cremophor solution at a concentration of 3 mg/kg/2 ml into the duodenum. Five hours after the ligation, the experimental animals were euthanized and their stomach contents were collected. The thus obtained contents were centrifuged at 4,000×g for 10 minutes, and the supernatant was recovered to obtain gastric juice therefrom. The amount of the gastric juice and its pH were measured. The acidity of the gastric juice was determined by 0.1 N-NaOH volume (ueq/mL) for automatic titration of gastric acid to pH 7.0. The total acid output was obtained by multiplying the gastric acidity by the amount of gastric juice. Inhibition Activity (%) of Test Compounds=(total gastric acid secretion in control group−total gastric acid secretion in groups treated with test compounds)/total gastric acid secretion in control group×100

Test [2] concerns the target T1, proton pump (H+/K+-ATPase) (Sus scrofa, UniProt P19156).
T1 construct: Gastric vesicles were prepared from hog stomach via centrifugal separation; from tissue; host or cells: hog stomach (gastric vesicles, method of Rabon et al. 1988)
Kind of test: Measurement of inhibitory effects on proton pump (H+/K+-ATPase) activities. In kind it is biochemical. As to conditions: hog gastric vesicles, K+-specific H+/K+-ATPase activity, Tris-HCl buffer pH 7.4, 37° C. for 40 minutes, malachite green Pi readout. In outline:
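Hog gastric vesicles in 60 mmol/l Tris-HCl pH 7.4 with 0.5% DMSO were treated with compounds at room temperature; reaction was started with 10 μl of 10 mmol/l ATP stock. Released Pi was read at 570 nm, K+-specific activity taken as the ±K+ difference. IC50 from 4-parameter logistic fit.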

T1 sequence (P19156 whole entry): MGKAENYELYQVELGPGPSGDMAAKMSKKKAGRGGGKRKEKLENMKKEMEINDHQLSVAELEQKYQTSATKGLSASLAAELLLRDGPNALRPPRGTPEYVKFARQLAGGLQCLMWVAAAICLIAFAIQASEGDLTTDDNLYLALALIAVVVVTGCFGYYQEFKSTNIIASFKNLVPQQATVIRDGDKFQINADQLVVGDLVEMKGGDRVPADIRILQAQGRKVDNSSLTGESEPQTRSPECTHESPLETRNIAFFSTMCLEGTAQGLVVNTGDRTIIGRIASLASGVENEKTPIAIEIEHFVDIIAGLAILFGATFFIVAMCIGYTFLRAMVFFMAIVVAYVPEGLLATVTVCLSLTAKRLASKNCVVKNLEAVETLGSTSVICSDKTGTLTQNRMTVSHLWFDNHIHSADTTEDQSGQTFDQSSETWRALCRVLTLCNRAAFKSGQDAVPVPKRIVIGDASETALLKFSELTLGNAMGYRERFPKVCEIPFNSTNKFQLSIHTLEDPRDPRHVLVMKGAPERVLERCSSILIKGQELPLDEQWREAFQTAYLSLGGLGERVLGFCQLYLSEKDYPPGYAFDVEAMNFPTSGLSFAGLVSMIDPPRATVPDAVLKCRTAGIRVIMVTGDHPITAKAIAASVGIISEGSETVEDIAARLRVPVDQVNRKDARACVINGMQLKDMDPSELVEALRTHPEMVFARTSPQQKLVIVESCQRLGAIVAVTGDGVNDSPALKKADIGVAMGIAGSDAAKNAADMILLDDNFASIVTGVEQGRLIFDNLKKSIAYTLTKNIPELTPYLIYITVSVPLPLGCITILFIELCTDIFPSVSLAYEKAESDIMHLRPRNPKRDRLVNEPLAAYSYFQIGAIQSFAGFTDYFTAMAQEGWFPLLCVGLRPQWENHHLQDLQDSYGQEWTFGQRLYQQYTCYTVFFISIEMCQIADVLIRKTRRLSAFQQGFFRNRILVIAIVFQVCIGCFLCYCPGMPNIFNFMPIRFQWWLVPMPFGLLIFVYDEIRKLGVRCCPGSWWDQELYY
T1 sequence (P18434 whole entry partner): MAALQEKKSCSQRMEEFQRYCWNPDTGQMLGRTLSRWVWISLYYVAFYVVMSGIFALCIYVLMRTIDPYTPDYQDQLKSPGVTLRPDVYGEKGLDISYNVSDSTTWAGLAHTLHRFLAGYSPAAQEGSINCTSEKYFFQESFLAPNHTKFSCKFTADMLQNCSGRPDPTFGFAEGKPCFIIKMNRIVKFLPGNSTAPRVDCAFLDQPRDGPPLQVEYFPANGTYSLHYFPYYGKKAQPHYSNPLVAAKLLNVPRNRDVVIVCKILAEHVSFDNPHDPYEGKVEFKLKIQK

For orientation: inhibition in vivo means the drop in the measured response relative to a control, in per cent. Low values mean little suppression, high ones strong suppression. For orientation: IC50 means the midpoint of a concentration-inhibition curve. A high value points to weaker potency. In test [1], `CNCc1cn(S(=O)(=O)c2cccc(F)c2)c2cc(Nc3ccc(Cl)nc3Cl)ccc12` [Example 142, N-(2,6-dichloropyridin-3-yl)-1-((3-fluorophenyl)sulfonyl)-3-((methylamino)methyl)-1H-indol-6-amine hydrochloride] had an inhibition in vivo at 3 mg/kg of 42%. Also, inhibition in test [2] was half-maximal at 0.12 µM (IC50).

As to `CNCc1cn(S(=O)(=O)c2cccc(Cl)c2)c2cc(Nc3ccc(C)cc3OC(F)(F)F)ccc12` [Example 148, 1-((3-chlorophenyl)sulfonyl)-N-(4-methyl-2-(trifluoromethoxy)phenyl)-3-((methylamino)methyl)-1H-indol-6-amine hydrochloride], the inhibition in vivo at 3 mg/kg in test [1] is 45%. The same compound had an IC50 in test [2] of 0.01 µM.

In turn, `CNCc1cn(S(=O)(=O)c2cccnc2)c2cc(Nc3ccc(Cl)cc3F)ccc12` [Example 28, N-(4-chloro-2-fluorophenyl)-3-((methylamino)methyl)-1-(pyridin-3-ylsulfonyl)-1H-indol-6-amine hydrochloride] registered an inhibition in vivo at 3 mg/kg in test [1] of 44%. In test [2], this compound gave an IC50 of 0.74 µM.

In the case of `CNCc1cn(S(=O)(=O)c2cccnc2)c2cc(Cc3ccc(C)cc3Cl)ccc12` [Example 267, 1-(6-(2-chloro-4-methylbenzyl)-1-(pyridin-3-ylsulfonyl)-1H-indol-3-yl)-N-methylmethanamine hydrochloride], the inhibition in vivo at 3 mg/kg in test [1] is 44%. Also, in test [2], the IC50 is 0.23 µM.

For the compound `CNCc1cn(S(=O)(=O)c2cncc(F)c2)c2cc(Nc3ccc(C)cc3Cl)ccc12` [Example 211, N-(2-chloro-4-methylphenyl)-1-((5-fluoropyridin-3-yl)sulfonyl)-3-((methylamino)methyl)-1H-indol-6-amine hydrochloride], in test [1], the inhibition in vivo at 3 mg/kg amounted to 43%. The same compound came in with an IC50 in test [2] of 0.09 µM.

`CNCc1cn(S(=O)(=O)c2cncc(F)c2)c2cc(Nc3ccc(OC)nc3Cl)ccc12` [Example 217, N-(2-chloro-6-methoxypyridin-3-yl)-1-((5-fluoropyridin-311)sulfonyl)-3-((methylamino)methyl)-1H-indol-6-amine hydrochloride] returned an inhibition in vivo at 3 mg/kg in test [1] of 44%. Moreover, the IC50 in test [2] is 0.54 µM.

For the compound `CNCc1cn(S(=O)(=O)c2cccc(F)c2)c2cc(Nc3ccc(OC)cc3F)ccc12` [Example 139, N-(2-fluoro-4-methoxyphenyl)-1-((3-fluorophenyl)sulfonyl)-3-((methylamino)methyl)-1H-indol-6-amine hydrochloride], in test [1], the inhibition in vivo at 3 mg/kg was found to be 40%. The compound also gave an IC50 in test [2] of 0.18 µM.

Compound `CNCc1cn(S(=O)(=O)c2cccnc2)c2cc(Cc3ccc(C)cc3)ccc12` [Example 270, N-methyl-1-(6-(4-methylbenzyl)-1-(pyridin-3-ylsulfonyl)-1H-indol-3-yl)methanamine hydrochloride] showed an inhibition in vivo at 3 mg/kg in test [1] of 38%. This compound came in with an IC50 in test [2] of 0.79 µM.

In test [1], `CNCc1cn(S(=O)(=O)c2cncc(F)c2)c2cc(Nc3ccc(F)cc3Cl)ccc12` [Example 213, N-(2-chloro-4-fluorophenyl)-1-((5-fluoropyridin-3-yl)sulfonyl)-3-((methylamino)methyl)-1H-indol-6-amine hydrochloride] yielded an inhibition in vivo at 3 mg/kg of 50%. Also, the IC50 in test [2] is 0.16 µM.

Consider `CNCc1cn(S(=O)(=O)c2cccnc2)c2cc(Cc3ccc(F)cc3Cl)ccc12` [Example 273, 1-(6-(2-chloro-4-fluorobenzyl)-1-(pyridin-3-ylsulfonyl)-1H-indol-3-yl)-N-methylmethanamine hydrochloride], for which, in test [1], the inhibition in vivo at 3 mg/kg is 32%. Also, the IC50 in test [2] is 0.37 µM.

Turning to `CNCc1cn(S(=O)(=O)c2cccc(Cl)c2)c2cc(Nc3ccc(OC)nc3Cl)ccc12` [Example 160, N-(2-chloro-6-methoxypyridin-3-yl)-1-((3-chlorophenyl)sulfonyl)-3-((methylamino)methyl)-1H-indol-6-amine hydrochloride], in test [1], the inhibition in vivo at 3 mg/kg was 57%. For the same compound, the IC50 in test [2] was determined as 0.29 µM.

`CNCc1cn(S(=O)(=O)c2cccc(F)c2)c2cc(Nc3ccc(Cl)nc3OC)ccc12` [Example 141, N-(6-chloro-2-methoxypyridin-3-yl)-1-((3-fluorophenyl)sulfonyl)-3-((methylamino)methyl)-1H-indol-6-amine hydrochloride] returned an inhibition in vivo at 3 mg/kg in test [1] of 51%. In test [2], this compound registered an IC50 of 0.39 µM.

`CNCc1cn(S(=O)(=O)c2cccnc2)c2cc(Nc3ccc(OC)nc3Cl)ccc12` [Example 123, N-(2-chloro-6-methoxypyridin-3-yl)-3-((methylamino)methyl)-1-(pyridin-3-ylsulfonyl)-1H-indol-6-amine hydrochloride] came in with an inhibition in vivo at 3 mg/kg in test [1] of 40%. Half-maximal inhibition in test [2] (IC50) required 0.35 µM.

Take `CNCc1cn(S(=O)(=O)c2cncc(F)c2)c2cc(Nc3ccc(C)cc3F)ccc12` [Example 210, N-(2-fluoro-4-methylphenyl)-1-((5-fluoropyridin-3-yl)sulfonyl)-3-((methylamino)methyl)-1H-indol-6-amine hydrochloride]: in test [1], the inhibition in vivo at 3 mg/kg is 43%. This compound had an IC50 in test [2] of 0.37 µM.

Take `CNCc1cn(S(=O)(=O)c2cccc(F)c2)c2cc(Nc3ccc(F)cc3C)ccc12` [Example 138, N-(4-fluoro-2-methylphenyl)-1-((3-fluorophenyl)sulfonyl)-3-((methylamino)methyl)-1H-indol-6-amine hydrochloride]: in test [1], the inhibition in vivo at 3 mg/kg came out at 55%. In test [2], this compound yielded an IC50 of 0.12 µM.

Consider `CNCc1cn(S(=O)(=O)c2cccc(F)c2)c2cc(Nc3ccc(C(F)(F)F)nc3Cl)ccc12` [Example 145, N-(2-chloro-6-(trifluoromethyl)pyridin-3-yl)-1-((3-fluorophenyl)sulfonyl)-3-((methylamino)methyl)-1H-indol-6-amine hydrochloride], for which at 3 mg/kg the inhibition in vivo in test [1] was 45%. Also, in test [2], the half-maximal inhibitory concentration (IC50) is 0.17 µM.

`CNCc1cn(S(=O)(=O)c2cccnc2)c2cc(Nc3ccc(OC(F)(F)F)cc3Cl)ccc12` [Example 55, N-(2-chloro-4-(trifluoromethoxy)phenyl)-3-((methylamino)methyl)-1-(pyridin-3-ylsulfonyl)-1H-indol-6-amine hydrochloride]: the inhibition in vivo at 3 mg/kg in test [1] was 55%. Moreover, the midpoint of inhibition in test [2], the IC50, lay at 0.42 µM.

As to `CNCc1cn(S(=O)(=O)c2cccnc2)c2cc(Cc3ccc(C)cc3F)ccc12` [Example 272, 1-(6-(2-fluoro-4-methylbenzyl)-1-(pyridin-3-ylsulfonyl)-1H-indol-3-yl)-N-methylmethanamine hydrochloride], the inhibition in vivo at 3 mg/kg in test [1] amounted to 41%. The midpoint of inhibition in test [2], the IC50, lay at 0.5 µM.

As for `CNCc1cn(S(=O)(=O)c2cccnc2)c2cc(Nc3ccc(OC)cc3OC(F)(F)F)ccc12` [Example 50, N-(4-methoxy-2-(trifluoromethoxy)phenyl)-3-((methylamino)methyl)-1-(pyridin-3-ylsulfonyl)-1H-indol-6-amine hydrochloride], in test [1], the inhibition in vivo at 3 mg/kg turned out to be 67%. Moreover, the IC50 in test [2] stood at 1.37 µM.

Take `CNCc1cn(S(=O)(=O)c2cccc(Cl)c2)c2cc(Nc3ccc(OC)cc3F)ccc12` [Example 153, 1-((3-chlorophenyl)sulfonyl)-N-(2-fluoro-4-methoxyphenyl)-3-((methylamino)methyl)-1H-indol-6-amine hydrochloride]: in test [1], the inhibition in vivo at 3 mg/kg turned out to be 42%. This compound had an IC50 in test [2] of 0.26 µM.

With `CNCc1cn(S(=O)(=O)c2cccc(F)c2)c2cc(Nc3ccc(Cl)nc3C(F)(F)F)ccc12` [Example 143, N-(6-chloro-2-(trifluoromethyl)pyridin-3-yl)-1-((3-fluorophenyl)sulfonyl)-3-((methylamino)methyl)-1H-indol-6-amine hydrochloride], in test [1], at 3 mg/kg the inhibition in vivo was 53%. Further, half-maximal inhibition in test [2] (IC50) required 0.29 µM.

With `CNCc1cn(S(=O)(=O)c2cccnc2)c2cc(Cc3ccc(C)c(F)c3F)ccc12` [Example 286, 1-(6-(2,3-difluoro-4-methylbenzyl)-1-(pyridin-3-ylsulfonyl)-1H-indol-3-yl)-N-methylmethanamine hydrochloride], in test [1], testing at 3 mg/kg gave an inhibition in vivo of 35%. The compound further gave an IC50 in test [2] of 0.39 µM.

`CNCc1cn(S(=O)(=O)c2cccnc2)c2cc(Nc3ccc(Cl)cc3C(F)(F)F)ccc12` [Example 31, N-(4-chloro-2-(trifluoromethyl)phenyl)-3-((methylamino)methyl)-1-(pyridin-3-ylsulfonyl)-1H-indol-6-amine hydrochloride]: in test [1], the inhibition in vivo at 3 mg/kg stood at 41%. Moreover, the IC50 in test [2] is 0.92 µM.

`CNCc1cn(S(=O)(=O)c2cccnc2)c2cc(Nc3ccc(OC)cc3[N+](=O)[O-])ccc12` [Example 52, N-(4-methoxy-2-nitrophenyl)-3-((methylamino)methyl)-1-(pyridin-3-ylsulfonyl)-1H-indol-6-amine hydrochloride] showed an inhibition in vivo at 3 mg/kg in test [1] of 70%. In test [2], this compound returned an IC50 of 0.29 µM.
